The text below walks through data of ChEMBL document CHEMBL4765429, “Discovery of methyl 3-((2-((1-(dimethylglycyl)-5-methoxyindolin-6-yl)amino)-5-(trifluoro-methyl) pyrimidin-4-yl)amino)thiophene-2-carboxylate as a potent and selective polo-like kinase 1 (PLK1) inhibitor for combating hepatocellular carcinoma” (Eur J Med Chem, 2020).

Series [1] can be described thus: Metabolic stability in dog liver microsomes assessed as clearance. Format: ADME, Canis lupus familiaris, Microsome. The conditions noted are these: read-out: CLH.
Series [2] is described as follows: Metabolic stability in mouse liver microsomes assessed as clearance. Format: ADME, Microsome. The conditions noted are these: read-out: CLH.
A short description of series [3]: Metabolic stability in rat liver microsomes assessed as clearance. The conditions noted are these: read-out: CLH. Format: ADME, Microsome.
Series [4] can be described thus: Volume of distribution at steady state in ICR mouse at 5 mg/kg, iv. Format: ADME, organism-based. The conditions noted are these: in vivo, read-out: Vdss.
The nature of series [5]: AUC (0 to infinity) in ICR mouse at 5 mg/kg, iv. It counts as ADME, organism-based. Set-up: route intravenous, time infinity, dose 5 mg/kg. Conditions: in vivo.
Series [6] can be described thus: Metabolic stability in monkey liver microsomes assessed as clearance. It counts as ADME, Macaca mulatta, Microsome. The conditions noted are these: rhesus monkey, read-out: CLH.
Series [7] can be described thus: Half life in ICR mouse at 5 mg/kg, iv. It counts as ADME, organism-based. Conditions: in vivo.
A short description of series [8]: Metabolic stability in human liver microsomes assessed as clearance. Format: ADME, Microsome. Conditions: read-out: CLH.

Structures are written as SMILES.

Turning to `COC(=O)c1sccc1Nc1nc(Nc2cc3c(cc2OC)CCN3C(=O)CN(C)C)ncc1C(F)(F)F`, the CLint scaled in series [1] was 61.5 mL/min/kg; in series [2] it was 331 mL/min/kg; in series [3], 91.3 mL/min/kg; in series [6], 196 mL/min/kg; in series [8], 74.3 mL/min/kg. The Vd in series [4] came to 5.21 L/kg. This molecule also came in with an AUC(0-inf) in series [5] of 776 ng·h/mL. Also, the half-life in series [7] was 1.47 h.
